15 compounds from ChEMBL document CHEMBL6127011, “Design, synthesis, and evaluation of benzodioxolane compounds for antitumor activity” (Bioorg Med Chem Lett, 2024) can be followed below.

Activity calls are given as the source filed them. The rule behind the calls is not given here.

One data set concerns HEK-293T. Description: (§1) Cytotoxicity against human HEK293T cells by MTT assay. The following applies: hek-293t; for Activity: human. It counts as toxicity, cell-based.
For data set [1], the system named is HeLa. Description: Antiproliferative activity against human HeLa cells by MTT assay. It counts as functional, cell-based.
A further data set relates to MDA-MB-231. Description: Antiproliferative activity against human MDA-MB-231 cells by MTT assay. The format is functional, cell-based.
Data set [2] is described as follows: as §1. It counts as toxicity, cell-based, HEK-293T. The settings on record: human, HEK293T cells.
Data set [3] deals with HeLa. Nature of the data set: Inhibition of cell adhesion in human HeLa cells at 10 uM. The format is functional.
Data set [4] relates to HeLa. Nature of the data set: Inhibition of colony formation in human HeLa cells at 10 uM incubated for 24 hrs. It counts as functional.
Data set [5] concerns HeLa. Description: Inhibition of cell migration in human HeLa cells assessed as migration rate at 10 uM incubated for 24 hrs by transwell assay; values are per cent of control.
The nature of data set [6]: Inhibition of tumor angiogenesis in human HeLa cells xenografted in chick embryo chorioallantoic membrane at 10 uM incubated for 24 hrs; values are per cent of control.
Data set [7] deals with HeLa. Nature of the data set: Inhibition of cell adhesion in human HeLa cells. It counts as functional, cell-based.
The test system of data set [8] is HeLa. Nature of the data set: Inhibition of colony formation in human HeLa cells incubated for 24 hrs. The format is functional, cell-based. The settings on record: dose 2.5-10 µM.
For data set [9], the system named is HeLa. Description: Antitumor activity against human HeLa cells xenografted in chicken embryo chorioallantoic membrane assessed as reduction in tumor weight at 2.5 uM (reference value: 39 +/- 1.41 mg). It counts as functional.
For data set [10], the system named is HeLa. Description: Antitumor activity against human HeLa cells xenografted in chicken embryo chorioallantoic membrane assessed as reduction in tumor weight at 5 uM (reference value: 39 +/- 1.41 mg). It counts as functional.
In data set [11] the test system is HeLa. Description: Antitumor activity against human HeLa cells xenografted in chicken embryo chorioallantoic membrane assessed as reduction in tumor weight at 10 uM (reference value: 39 +/- 1.41 mg). The format is functional.
In data set [12] the test system is HeLa. Nature of the data set: Inhibition of cell migration in human HeLa cells assessed as migration rate at 5 uM incubated for 24 hrs by transwell assay; values are per cent of control.
The subject of data set [13] is HeLa. Nature of the data set: Inhibition of cell migration in human HeLa cells assessed as migration rate at 2.5 uM incubated for 24 hrs by transwell assay; values are per cent of control.
A short description of data set [14]: Inhibition of tumor angiogenesis in human HeLa cells xenografted in chick embryo chorioallantoic membrane at 5 uM incubated for 24 hrs; values are per cent of control.
Data set [15] can be described thus: Inhibition of tumor angiogenesis in human HeLa cells xenografted in chick embryo chorioallantoic membrane at 2.5 uM incubated for 24 hrs; values are per cent of control.

Regarding `O=C1CCC(N2Cc3c(NC(=O)Cc4ccc5c(c4)OCO5)cccc3C2=O)C(=O)N1` (configuration not stated), the results for the IC50 in the data set with HEK-293T and with HeLa [1] were 1430 µM and 63.2 µM, respectively. Further, in the data set on MDA-MB-231, the outcome was inactive.
In the case of `Cc1cn(-c2cc(NC(=O)c3ccc4c(c3)OCO4)cc(C(F)(F)F)c2)cn1`, the IC50 was 479 µM in data set [2], 50.6 µM with HeLa [1] and 254 µM in the data set on MDA-MB-231.
The corresponding values for `Cc1cn(-c2cc(NC(=O)Cc3ccc4c(c3)OCO4)cc(C(F)(F)F)c2)cn1` are 18.9 µM, 7.81 µM and 46.9 µM.
With `O=c1[nH]cc(F)c(=O)[nH]1` [FLUOROURACIL], the IC50 in data set [2] stood at 3.21 µM; in the data set with HeLa [1] it was 44.6 µM; with MDA-MB-231, 18.1 µM. Further, the inhibition at 10 µM in the data set with HeLa [3] amounted to 55.8%; in the data set with HeLa [4], 52.1%. Further, in the data set with HeLa [5], the migration rate (% of control) at 10 µM was 47.3%. In data set [6], this compound yielded an angiogenesis (% of control) at 10 µM of 78.8%.
`COc1cc2c(cc1OC)C(=O)C(CC1CCN(C(=O)c3ccc4c(c3)OCO4)CC1)C2` (configuration not stated): the IC50 in [2] was determined as 405 µM; with HeLa [1], 25 µM; with MDA-MB-231 it was 80.6 µM.
For `O=C(/C=C/C=C/c1ccc2c(c1)OCO2)N1CCCCC1` [PIPERINE] the same measures were 42.8 µM, 44.4 µM and 239 µM.
The corresponding values for `O=C(/C=C/C=C/c1ccc2c(c1)OCO2)Nc1cccc2c1CN(C1CCC(=O)NC1=O)C2=O` (configuration not stated) are 81.5 µM, 50.4 µM and 80.7 µM.
For `COc1cc2c(cc1OC)C(=O)C(CC1CCN(C(=O)/C=C/c3cc4c(cc3Br)OCO4)CC1)C2` (configuration not stated), the Activity result with HEK-293T is given as “Non-Toxic”. Besides, the values for the IC50 with HeLa [1] and with MDA-MB-231 were 29.5 µM and 15.2 µM, respectively.
Take `Cc1cn(-c2cc(NC(=O)/C=C/c3ccc4c(c3)OCO4)cc(C(F)(F)F)c2)cn1`: the IC50 in data set [2] amounted to 18.7 µM; in the data set with HeLa [1] it was 8.61 µM; with MDA-MB-231 it was 28.8 µM.
As to `O=C(/C=C/c1ccc2c(c1)OCO2)Nc1cccc2c1CN(C1CCC(=O)NC1=O)C2=O` (configuration not stated), the results for the IC50 in the data set with HEK-293T and with HeLa [1] were 1440 µM and 37.3 µM, respectively. The result in the data set with MDA-MB-231 was inactive.
For `COc1cc2c(cc1OC)C(=O)C(CC1CCN(C(=O)c3ccc4c(c3)OC(F)(F)O4)CC1)C2` (configuration not stated), the Activity result in the data set with HEK-293T was “Non-Toxic”. Moreover, the values for the IC50 with HeLa [1] and with MDA-MB-231 were 38 µM and 81.3 µM, respectively.
Regarding `O=C1CCC(N2Cc3c(NC(=O)c4ccc5c(c4)OCO5)cccc3C2=O)C(=O)N1` (configuration not stated), the results for the IC50 (in data set [2]; in the data set on HeLa [1]; in the data set on MDA-MB-231) were 625 µM, 11.5 µM and 284 µM, respectively.
For `COc1cc2c(cc1OC)C(=O)C(CC1CCN(C(=O)/C=C/c3ccc4c(c3)OCO4)CC1)C2` (configuration not stated) the same measures were 8.03 µM, 18.5 µM and 105 µM.
Regarding `Cc1cn(-c2cc(NC(=O)/C=C/C=C/c3ccc4c(c3)OCO4)cc(C(F)(F)F)c2)cn1`, the values for the IC50 (in data set [2]; in the data set on HeLa [1]; in the data set with MDA-MB-231) were 104 µM, 10.2 µM and 22.8 µM, respectively. In addition, the inhibition result in the data set on HeLa [7] and in the data set on HeLa [8] was “Dose-Dependent Effect” each time. For the same compound, the values for the inhibition at 10 µM in the data set on HeLa [3] and in the data set on HeLa [4] were 16.7% and 25.1%, respectively. In addition, the results for the Activity in the data set with HeLa [9], in the data set with HeLa [10] and with HeLa [11] were 28.5 mg, 13.5 mg and 7.5 mg, respectively. Further, in the data set with HeLa [12], the migration rate (% of control) at 5 µM came to 50.4%. The migration rate (% of control) at 10 µM in the data set with HeLa [5] came to 27.6%. In addition, the migration rate (% of control) at 2.5 µM in the data set with HeLa [13] worked out at 80.3%. The angiogenesis (% of control) at 5 µM in [14] worked out at 78.4%. The angiogenesis (% of control) at 10 µM in data set [6] was found to be 61.9%. Also, the angiogenesis (% of control) at 2.5 µM in data set [15] was 93.2%.
Consider `COc1cc2c(cc1OC)C(=O)C(CC1CCN(C(=O)/C=C/C=C/c3ccc4c(c3)OCO4)CC1)C2` (configuration not stated), for which the values for the IC50 (in data set [2]; in the data set on HeLa [1]; in the data set on MDA-MB-231) were 61.9 µM, 32.1 µM and 123 µM, respectively.
